# In PMC3779154, “Identification of Therapeutic Candidates for Chronic Lymphocytic Leukemia from a Library of Approved Drugs” (PLoS ONE, 2013):
# Counter-ions that a name gives are not always drawn. Like-named read-outs stand apart in the source and are kept apart here. Starred links: 1 amine or outer side, 2 acyl side, 3 side chain; linkers in the order of their positions; H or OH if unused. Positions of bridges follow the written chain, without caps; N, C: chain ends. Non-standard residues stand in square brackets, D forms with d. Residues, ends and D or L forms follow the SMILES beside them. Chains are numbered I, II in the order given. Actinocin(9to1) = Cc1c2oc3c(C)ccc(C(=O)[*:1])c3nc-2c(C(=O)[*:2])c(N)c1=O; NMeV = CN[C@H](C(=O)O)C(C)C; Sar = CNCC(=O)O
# Key:
# [1] = system: caspase-3/7; assay: Caspase-Glo 3/7 activation assay in CLL samples; assay type: cell-based, human; conditions: read-out: EC50 caspase-3/7 activity
# Experimental: The effect of selected compounds on caspase activity was measured using a homogeneous luminescent method (Caspase-Glo® 3/7, 8 and 9 kits, Promega, Madison, WI). Briefly in this assay, caspase induced by cells cleaves a pro-luciferin substrate where a tetrapeptide caspase substrate - DEVD (asp-glu-val-asp) is cleaved to free aminoluciferin, which can be used as a substrate by luciferase yielding a bioluminescent signal. The luminescent signal is proportional to the amount of caspase activity present in the cells. Cells were dispensed in culture medium at 5,000/cells/5uL/well in 1536-well white/solid-bottom assay plates. The cells were incubated for overnight at 37°C. The compounds (23nL/well) were added via the pin tool. The treated cells were further incubated for 24 h at 37°C, followed by the addition of the Caspase-Glo 3/7, 8 or 9 reagents at 5uL/well. After a 30 min incubation at room temperature, the luminescence intensity of the assay plates was measured using a ViewLux Plate Reader. The caspase activity was normalized to DMSO control.
# [2] = system: fresh CLL patient lymphocytes
# Experimental: (§1) Cell viability was measured using a luciferase-based ATP quantitation assay (CellTiter-Glo^TM, Promega). The intracellular ATP content indicates the number of viable (i.e. metabolically competent) cells after compound treatment. […] After that, a total of 23 nL of compounds at 8 selected concentrations from the NPC library or positive control (10 mM stock of doxorubicin hydrochloride) in DMSO was transferred to each well of the assay plate using a pintool (Kalypsys, San Diego, CA), and the plates were further incubated at 37 °C with 5% CO2 for 24 hours to allow the reaction. Then 4µL of CellTilter-Glo luminescent substrate mix was added to each well. The plate was incubated at room temperature for 15 minutes. The plates were measured on a ViewLux plate reader (PerkinElmer) with clear filter. […] The test volume of 5,000 cells/4 μL/well was selected as the final assay condition in cell density tests based on the assay performance statistics: signal/background ratio, coefficient of variation and Z’-factor (data not shown).
# (§2) Fresh primary cells were also obtained from two unaffected normal donors and seven CLL patients whose blood samples were collected within hours of apheresis and which had not been included in our previous experiments.
# [3] = system: lymphocytes from normal donors; conditions: for difference in efficacy between CLL and unaffected donor samples: at 19 µM and 57 µM, the two highest testing concentrations; for potency shift between CLL and normal donor samples: fresh cells, normal IC50 vs CLL IC50; for IC50: read-out: IC50 normal, average of 2 normal donors, fresh, Figure 5
# Experimental: (§3) Cell viability was measured using a luciferase-based ATP quantitation assay (CellTiter-Glo^TM, Promega). The intracellular ATP content indicates the number of viable (i.e. metabolically competent) cells after compound treatment. Four µL of CLL cells resuspended in AIM medium at 1,330,000 cells/ml, were dispensed into each well of white, solid bottom, 1536-well tissue culture–treated plates using a Multidrop-Combi dispenser and incubated overnight. After that, a total of 23 nL of compounds at 8 selected concentrations from the NPC library or positive control (10 mM stock of doxorubicin hydrochloride) in DMSO was transferred to each well of the assay plate using a pintool (Kalypsys, San Diego, CA), and the plates were further incubated at 37 °C with 5% CO2 for 24 hours to allow the reaction. Then 4µL of CellTilter-Glo luminescent substrate mix was added to each well. The plate was incubated at room temperature for 15 minutes. The plates were measured on a ViewLux plate reader (PerkinElmer) with clear filter.
# (§4) These compounds were then re-tested in the cell viability assay using 12 point titrations with concentration ranging from 57 µM to 0.3 nM with 1:3 dilution.
# as §2
# [4] = system: lymphocytes from normal donors; assay: cells; conditions: Homo sapiens, Lymphocyte, read-out: IC50 normal
# Experimental: as §3, §4, §2
# [5] = system: fresh CLL patient lymphocytes; assay: cells; conditions: Homo sapiens
# Experimental: as §1, §2
# [6] = system: ME-180 human cervical carcinoma cell line; assay: Cell viability assay, ME-180 cells (NPC library profiling)
# Text: Based on the definition of actives, inactives and inconclusive mentioned above, compounds were further clustered hierarchically using Spotfire DecisionSite 8.2 (Spotfire Inc., Cambridge, MA) based on their activity outcomes from the primary screen across a wide variety of cell viability assays against different cell lines or primary patient cells. Each compound was converted into an integer which represents its activity outcome in each cell viability assay. […] Integer 2 represents compounds in “inconclusive” category which is corresponding to light red in the heat map. […] Compounds not tested in the assay were labeled as 4 and shown as grey in the heat map.
# [7] = system: primary CLL cells; assay: qHTS luminescent ATP cell viability assay (CellTiter-Glo), primary screen, frozen CLL patient cells; assay type: cell-based, human; conditions: for cytotoxicity across CLL cell samples: six CLL patient samples, primary screen; for Emax / IC50: Homo sapiens, CLL cell; for Emax: CLL cells, 24 h, normalized to doxorubicin control, read-out: efficacy (maximal response)
# Text: Lymphocytes from 13 CLL treatment naïve patients (Table 1 ) and 5 normal donors were obtained by lymphapheresis with written informed consent and isolated by gradient centrifugation using Lymphocyte Separation Medium (MP Biomedicals, Solon, OH) and used fresh or cryopreserved in liquid nitrogen in 10% dimethyl sulfoxide, 90% FCS. CLL patients were consented on the institutional review board (IRB) approved at the National Heart, Lung, and Blood Institute (NHLBI, Office of Clinical Affairs, Bldg 10, CRC. Room 6-5140, Bethesda, Maryland 20892-1608) with protocol 04-H-0012 and samples from normal donors were collected by the Department of Transfusion Medicine, National Institutes of Health (NIH). This study was approved by the IRB mentioned above. Fresh cells were temporally placed on ice and plated for screening within 3 hrs of apheresis. Frozen cells were thawed the night before the assay and incubated in T175 flask in AIM V medium to recover overnight. Analysis of IGHV gene status was performed as described. CLL samples were cultured in AIM V serum free medium (Gibco-Invitrogen, Long Island, NY).
# Compound formatting and qHTS were performed as described previously. The final concentration of the NPC compounds in the 4 µL assay volume ranged from 57 µM to 0.7 nM in 1:5 dilution steps. The positive control plate format was as follows: columns 1 and 3, DMSO only; column 2, doxorubicin, a known cytotoxic chemotherapy agent in a 1:2 dilution series from 10 µM to 5 nM in DMSO; and column 4, doxorubicin at 10 µM in DMSO.
# To determine compound activity in the qHTS assay, the concentration-response data for each sample was plotted and modeled by a four parameter logistic fit yielding IC50 and efficacy (maximal response) values as previously described. Data normalization and curve fitting were performed using in-house informatics tools. Briefly, raw plate reads for each titration point were first normalized relative to the positive control compound (100%) and DMSO-only wells (basal, 0%), and then corrected by applying a pattern correction algorithm using compound-free control plates (i.e., DMSO-only plates) at the beginning and end of the NPC compound plate stack. […] In brief, Class 1.1 and 1.2 were the highest-confidence complete CRCs containing upper and lower asymptotes with efficacies ≥ 80% and < 80%, respectively. Class 2.1 and 2.2 were incomplete CRCs having only one asymptote with efficacy ≥ 80% and < 80%, respectively.
# Compounds from the primary qHTS screen were further classified into three categories according to the quality of curve fit and efficacy.
# [8] = read-out: IC50 CLL, average of cells from 7 CLL patients, fresh, Figure 5
# [9] = Lymphocyte, 24 h, confirmation assay, fresh CLL samples, Table S1
# [10] = confirmation assay, fresh CLL samples, 24 h, Table S1
# [11] = Lymphocyte, read-out: IC50 CLL, average of cells from 7 CLL patients, fresh, Figure 5
compound,measurement,setting,value
COc1cc([C@@H]2c3cc4c(cc3[C@H](O)[C@H]3COC(=O)[C@H]23)OCO4)cc(OC)c1OC [podofilox],EC50,"[1]; Homo sapiens, 24 h",< 100 nM
same,efficacy (cytotoxicity),[2]; human,> 60%
same,IC50,[2]; [8],< 1000 nM
same,IC50,"[2]; read-out: IC50 CLL, average of cells from 7 CLL patients, fresh, Figure 5, listed as Podofilox",60 nM
same,cytotoxicity on lymphocytes derived from unaffected donors,[3],almost no cytotoxicity
same,difference in efficacy between CLL and unaffected donor samples,[3],over 40%
same,decreased efficacy against B-cells from normal donors,[3]; at the testing concentration of 1.7 µM,approximately 40%
same,potency shift between CLL and normal donor samples,[3],about 3 fold
same,IC50,[4],150 nM
"Cc1c2oc3c(C)ccc(C(=O)N[C@@H]4C(=O)N[C@H](C(C)C)C(=O)N5CCC[C@H]5C(=O)N(C)CC(=O)N(C)[C@@H](C(C)C)C(=O)O[C@@H]4C)c3nc-2c(C(=O)N[C@@H]2C(=O)N[C@H](C(C)C)C(=O)N3CCC[C@H]3C(=O)N(C)CC(=O)N(C)[C@@H](C(C)C)C(=O)O[C@@H]2C)c(N)c1=O [actinomycin D] (I: T[dV]P[Sar][NMeV] / II: T[dV]P[Sar][NMeV]; ester I:1-I:C, II:1-II:C; linker I:N-II:N via Actinocin(9to1))",IC50,"[5]; Lymphocyte, 24 h",< 1000 nM
C[C@H]1CC[C@]2(NC1)O[C@H]1C[C@H]3[C@@H]4CC[C@H]5C[C@@H](O[C@@H]6O[C@H](CO)[C@H](O[C@@H]7O[C@H](CO)[C@@H](O)[C@H](O[C@@H]8OC[C@@H](O)[C@H](O)[C@H]8O)[C@H]7O[C@@H]7O[C@H](CO)[C@@H](O)[C@H](O)[C@H]7O)[C@H](O)[C@H]6O)CC[C@]5(C)[C@H]4CC[C@]3(C)[C@H]1[C@@H]2C [tomatine],cytotoxicity in ME-180 cells,[6],prominent cytotoxicity
COC(=O)C[C@](O)(CCCC(C)(C)O)C(=O)O[C@@H]1C(OC)=C[C@]23CCCN2CCc2cc4c(cc2[C@H]13)OCO4 [omacetaxine mepesuccinate],IC50,[5]; [9],< 1000 nM
Cc1cc(-c2ccc(/N=N/c3c(S(=O)(=O)O)cc4cc(S(=O)(=O)O)cc(N)c4c3O)c(C)c2)ccc1/N=N/c1c(S(=O)(=O)O)cc2cc(S(=O)(=O)O)cc(N)c2c1O [trypan blue],cytotoxicity in ME-180 cells,[6],prominent cytotoxicity
CC[C@@]1(O)C[C@H](O[C@H]2C[C@H](N(C)C)[C@H](O[C@H]3C[C@H](O)[C@H](O[C@H]4CCC(=O)[C@H](C)O4)[C@H](C)O3)[C@H](C)O2)c2c(cc3c(c2O)C(=O)c2c(O)cccc2C3=O)[C@H]1C(=O)OC [aclarubicin hydrochloride],IC50,"[5]; Lymphocyte, 24 h",< 1000 nM
CO[C@@H]1[C@H](O)C[C@@H](O[C@@H]2C[C@H](Oc3cc4cc5c(c(O)c4c(O)c3C)C(=O)[C@@H](O[C@H]3C[C@@H](O[C@H]4C[C@@H](O[C@H]6C[C@](C)(O)[C@@H](OC(C)=O)[C@H](C)O6)[C@H](O)[C@@H](C)O4)[C@H](O)[C@@H](C)O3)[C@H]([C@H](OC)C(=O)[C@@H](O)[C@@H](C)O)C5)O[C@H](C)[C@@H]2OC(C)=O)O[C@@H]1C [chromomycin A3],IC50,"[5]; Lymphocyte, 24 h",< 1000 nM
CC[C@]1(O)C[C@H]2CN(CCc3c([nH]c4ccccc34)[C@@](C(=O)OC)(c3cc4c(cc3OC)N(C=O)[C@H]3[C@@](O)(C(=O)OC)[C@H](OC(C)=O)[C@]5(CC)C=CCN6CC[C@]43[C@@H]65)C2)C1 [vincristine],IC50,[2]; [10],< 1000 nM
COc1cc2c(cc1O)CCN[C@]21CS[C@@H]2c3c(OC(C)=O)c(C)c4c(c3[C@H](COC1=O)N1[C@@H]2[C@H]2c3c(cc(C)c(OC)c3O)C[C@@H]([C@@H]1O)N2C)OCO4 [trabectedin],cytotoxicity across CLL cell samples,[7],cytotoxicity in all CLL cell samples at similar concentrations
same,IC50,[5]; [9],< 1000 nM
CC(=O)[O][Hg][c]1ccccc1 [phenylmercuric acetate],cytotoxicity in ME-180 cells,[6],prominent cytotoxicity
COc1cc([C@@H]2c3cc4c(cc3[C@@H](O[C@@H]3O[C@@H]5CO[C@@H](c6cccs6)O[C@H]5[C@H](O)[C@H]3O)[C@H]3COC(=O)[C@H]23)OCO4)cc(OC)c1O [teniposide],Emax,[7],< 80%
CC(=O)[C@]1(O)Cc2c(O)c3c(c(O)c2[C@@H](O[C@H]2C[C@H](N)[C@H](O)[C@H](C)O2)C1)C(=O)c1ccccc1C3=O [idarubicin],IC50,[7]; CLL patient #4705,3200 nM
same,IC50,[7]; CLL patient #4789,100 nM
same,IC50,[7]; CLL patient #4808,100 nM
same,potency shift,[7]; patient #4705 compared to #4789 and #4808,32 fold
same,IC50,[5]; [9],< 1000 nM
CC(C)C[C@H](NC(=O)[C@H](Cc1ccccc1)NC(=O)c1cnccn1)B(O)O [bortezomib],cytotoxicity across CLL cell samples,[7],cytotoxicity in all CLL cell samples at similar concentrations
same,IC50,[5]; [9],< 1000 nM
Cn1c(CCCC(=O)O)nc2cc(N(CCCl)CCCl)ccc21 [bendamustine],IC50,"[5]; Lymphocyte, 24 h",12000 to 30000 nM
O=C1c2c(O)ccc(O)c2C(=O)c2c(NCCNCCO)ccc(NCCNCCO)c21 [mitoxantrone],IC50,"[5]; CLL cell, read-out: potency, comparable cell killing against CLL cells and normal lymphocytes",6000 nM
same,IC50,[5]; [9],~5400 nM
same,IC50,[5]; [11],7200 nM
same,IC50,[4],7000 nM
CC[C@]1(O)C[C@@H]2CN(CCc3c([nH]c4ccccc34)[C@@](C(=O)OC)(c3cc4c(cc3OC)N(C)[C@H]3[C@@](O)(C(=O)OC)[C@H](OC(C)=O)[C@]5(CC)C=CCN6CC[C@]43[C@@H]65)C2)C1 [vinblastine],fold more potent in CLL sample #4808 than #4399,[7]; CLL sample #4808 vs #4399,> 100 fold
same,Emax,[7],> 80%
ivermectin,cytotoxicity in ME-180 cells,[6],prominent cytotoxicity
C[n+]1cc2c3c(ccc2c2ccc4cc5c(cc4c21)OCO5)OCO3 [sanguinarine],cytotoxicity in ME-180 cells,[6],prominent cytotoxicity
CN(C)c1ccc(C(=C2C=CC(=[N+](C)C)C=C2)c2c(O)c(S(=O)(=O)[O-])cc3cc(S(=O)(=O)[O-])ccc23)cc1.[Na+] [lissamine green B],cytotoxicity in ME-180 cells,[6],prominent cytotoxicity
Nc1nc(F)nc2c1ncn2[C@@H]1O[C@H](CO)[C@@H](O)[C@@H]1O [fludarabine],IC50,[2]; [8],12200 nM
same,IC50,"[2]; read-out: potency, comparable cell killing against CLL cells and normal lymphocytes",12000 nM
same,IC50,[3],9400 nM
COc1cccc2c1C(=O)c1c(O)c3c(c(O)c1C2=O)C[C@@](O)(C(=O)CO)C[C@@H]3O[C@H]1C[C@H](N)[C@H](O)[C@H](C)O1 [doxorubicin],potency shift between CLL and normal donor samples,[3],3 fold
same,IC50,[5]; [11],4500 nM
same,IC50,[4],14400 nM
plicamycin,EC50,"[1]; CLL samples, 24 hours",430 nM
same,IC50,[2]; [10],< 1000 nM
same,IC50,[2]; [8],750 nM
same,difference in efficacy between CLL and unaffected donor samples,[3],over 40%
same,potency shift between CLL and normal donor samples,[3],about 3 fold
same,IC50,[3],840 nM
same,decreased efficacy to normal B cells,[3]; versus CLL cells,over 40%
